Laboratory results published in patent publication US4138554A, “7-[D-α-(4-Hydroxy-1,5-naphthyridine-3-carboxamido)-α-phenyl (and p-hydroxyphenyl)acetamido]-3-carbamoyloxymethyl-3-cephem-4-carboxylic acids” (priority 1977, dated 1979).
In brackets after ≈: the same amount, converted by molar mass. Read-outs that look alike come from different tables or passages of the source.

Tested on: Pseudomonas aeruginosa
Assay: MIC by agar dilution against 61 strains of Pseudomonas aeruginosa, secondary evaluation
Format: cell-based
Settings: for MIC: Pseudomonas aeruginosa
Protocol: Minimum inhibitory concentrations (MIC) of BB-S520 were determined by serial two-fold agar dilution method using Steers' apparatus on Meuller-Hinton agar plate against 31 test organisms for the primary screening and also against 61 strains of Pseudomonas aeruginosa for the secondary evaluation. The results are shown in Table 1 and Table 2 along with those of BB-S514 and sulbenicillin.
Minimum inhibitory concentrations (MIC) of cephalosporins in the present study were determined by serial two-fold agar dilution method using Steers' apparatus on Mueller-Hinton agar plate against 31 test organisms for the primary screening and also against 61 strains of Pseudomonas aeruginosa for the secondary evaluation.

CCN1CCN(C(=O)NC(C(=O)N[C@@H]2C(=O)N3[C@@H]2SC(C)(C)[C@@H]3C(=O)O)c2ccccc2)C(=O)C1=O (stereo partly drawn) [T-1220]
Rel. Act. (SBPC=100%) (61 strains of Pseudomonas aeruginosa, Table 7): 544%
MIC (61 strains of Pseudomonas aeruginosa, Table 7, read-out: Geometric Mean of MIC): 4.3 µg/mL (≈ 8.31 µM)
MIC (BBRI Pa-No. 1, D15, Table 7, read-out: MIC): 12.5 µg/mL (≈ 24.2 µM)
MIC (BBRI Pa-No. 2, VA, Table 7, read-out: MIC): 3.1 µg/mL (≈ 5.99 µM)
MIC (BBRI Pa-No. 3, 1449VA, Table 7, read-out: MIC): 1.6 µg/mL (≈ 3.09 µM)
MIC (BBRI Pa-No. 4, H9 D113, Table 7, read-out: MIC): 3.1 µg/mL (≈ 5.99 µM)
MIC (BBRI Pa-No. 5, N4865KC, Table 7, read-out: MIC): 1.6 µg/mL (≈ 3.09 µM)
MIC (BBRI Pa-No. 6, No. 5, Table 7, read-out: MIC): 25 µg/mL (≈ 48.3 µM)
MIC (BBRI Pa-No. 7, Table 7, read-out: MIC): 3.1 µg/mL (≈ 5.99 µM)
MIC (BBRI Pa-No. 8, Table 7, read-out: MIC): 3.1 µg/mL (≈ 5.99 µM)
MIC (BBRI Pa-No. 9, Yale, Table 7, read-out: MIC): 3.1 µg/mL (≈ 5.99 µM)
MIC (BBRI Pa-No. 10, Table 7, read-out: MIC): > 100 µg/mL
MIC (BBRI Pa-No. 11, Table 7, read-out: MIC): 3.1 µg/mL (≈ 5.99 µM)
MIC (BBRI Pa-No. 12, Table 7, read-out: MIC): 6.3 µg/mL (≈ 12.2 µM)
MIC (BBRI Pa-No. 14, Table 7, read-out: MIC): 1.6 µg/mL (≈ 3.09 µM)
MIC (BBRI Pa-No. 15, Table 7, read-out: MIC): 6.3 µg/mL (≈ 12.2 µM)
MIC (BBRI Pa-No. 16, No. 130, Table 7, read-out: MIC): 0.8 µg/mL (≈ 1.55 µM)
MIC (BBRI Pa-No. 17, H6 D114, Table 7, read-out: MIC): 25 µg/mL (≈ 48.3 µM)
MIC (BBRI Pa-No. 18, H8 D121, Table 7, read-out: MIC): 50 µg/mL (≈ 96.6 µM)
MIC (BBRI Pa-No. 19, Table 7, read-out: MIC): 0.8 µg/mL (≈ 1.55 µM)
MIC (BBRI Pa-No. 20, Table 7, read-out: MIC): 6.3 µg/mL (≈ 12.2 µM)
MIC (BBRI Pa-No. 21, Table 7, read-out: MIC): 3.1 µg/mL (≈ 5.99 µM)
MIC (BBRI Pa-No. 23, Table 7, read-out: MIC): 3.1 µg/mL (≈ 5.99 µM)
MIC (BBRI Pa-No. 24, Table 7, read-out: MIC): > 100 µg/mL
MIC (BBRI Pa-No. 25, Table 7, read-out: MIC): 1.6 µg/mL (≈ 3.09 µM)
MIC (BBRI Pa-No. 26, Ps32, Table 7, read-out: MIC): 1.6 µg/mL (≈ 3.09 µM)
MIC (BBRI Pa-No. 28, CPH1C527/72, Table 7, read-out: MIC): 6.3 µg/mL (≈ 12.2 µM)
MIC (BBRI Pa-No. 29, D122, Table 7, read-out: MIC): 3.1 µg/mL (≈ 5.99 µM)
MIC (BBRI Pa-No. 30, Table 7, read-out: MIC): 6.3 µg/mL (≈ 12.2 µM)
MIC (BBRI Pa-No. 31, Table 7, read-out: MIC): 1.6 µg/mL (≈ 3.09 µM)
MIC (BBRI Pa-No. 32, Table 7, read-out: MIC): 3.1 µg/mL (≈ 5.99 µM)
MIC (BBRI Pa-No. 33, Table 7, read-out: MIC): 6.3 µg/mL (≈ 12.2 µM)
MIC (BBRI Pa-No. 34, Table 7, read-out: MIC): 3.1 µg/mL (≈ 5.99 µM)
MIC (BBRI Pa-No. 35, Table 7, read-out: MIC): 6.3 µg/mL (≈ 12.2 µM)
MIC (BBRI Pa-No. 36, Table 7, read-out: MIC): 0.4 µg/mL (≈ 0.773 µM)
MIC (BBRI Pa-No. 37, Table 7, read-out: MIC): 3.1 µg/mL (≈ 5.99 µM)
MIC (BBRI Pa-No. 38, Table 7, read-out: MIC): 6.3 µg/mL (≈ 12.2 µM)
MIC (BBRI Pa-No. 39, Table 7, read-out: MIC): 1.6 µg/mL (≈ 3.09 µM)
MIC (BBRI Pa-No. 41, Table 7, read-out: MIC): 3.1 µg/mL (≈ 5.99 µM)
MIC (BBRI Pa-No. 42, Table 7, read-out: MIC): 25 µg/mL (≈ 48.3 µM)
MIC (BBRI Pa-No. 43, Table 7, read-out: MIC): 6.3 µg/mL (≈ 12.2 µM)
MIC (BBRI Pa-No. 44 (unnamed strain), Table 7, read-out: MIC): 3.1 µg/mL (≈ 5.99 µM)
MIC (BBRI Pa-No. 51, Table 7, read-out: MIC): 3.1 µg/mL (≈ 5.99 µM)
MIC (BBRI Pa-No. 52, Table 7, read-out: MIC): 3.1 µg/mL (≈ 5.99 µM)
MIC (BBRI Pa-No. 53, Table 7, read-out: MIC): 3.1 µg/mL (≈ 5.99 µM)
MIC (BBRI Pa-No. 54, Table 7, read-out: MIC): 3.1 µg/mL (≈ 5.99 µM)
MIC (BBRI Pa-No. 55, Table 7, read-out: MIC): 3.1 µg/mL (≈ 5.99 µM)
MIC (BBRI Pa-No. 56, Table 7, read-out: MIC): 3.1 µg/mL (≈ 5.99 µM)
MIC (BBRI Pa-No. 57, Table 7, read-out: MIC): 6.3 µg/mL (≈ 12.2 µM)
MIC (BBRI Pa-No. 58, Table 7, read-out: MIC): 6.3 µg/mL (≈ 12.2 µM)
MIC (BBRI Pa-No. 59, Table 7, read-out: MIC): 1.6 µg/mL (≈ 3.09 µM)
MIC (BBRI Pa-No. 60, Table 7, read-out: MIC): 3.1 µg/mL (≈ 5.99 µM)
MIC (BBRI Pa-No. 61, Table 7, read-out: MIC): 3.1 µg/mL (≈ 5.99 µM)
MIC (BBRI Pa-No. 62, Table 7, read-out: MIC): 12.5 µg/mL (≈ 24.2 µM)
MIC (BBRI Pa-No. 64, Table 7, read-out: MIC): 3.1 µg/mL (≈ 5.99 µM)
MIC (BBRI Pa-No. 65, Table 7, read-out: MIC): 1.6 µg/mL (≈ 3.09 µM)
MIC (BBRI Pa-No. 66, Table 7, read-out: MIC): 3.1 µg/mL (≈ 5.99 µM)
MIC (BBRI Pa-No. 67, Table 7, read-out: MIC): 6.3 µg/mL (≈ 12.2 µM)
MIC (BBRI Pa-No. 68, Table 7, read-out: MIC): 6.3 µg/mL (≈ 12.2 µM)
MIC (BBRI Pa-No. 69, Table 7, read-out: MIC): 6.3 µg/mL (≈ 12.2 µM)
MIC (BBRI Pa-No. 70, K-Ps102(CR-102), Table 7, read-out: MIC): 3.1 µg/mL (≈ 5.99 µM)
MIC (GN315, BBRI Pa-No. 27, GN315, Table 7, read-out: MIC): 3.1 µg/mL (≈ 5.99 µM)
MIC (GN4925, BBRI Pa-No. 44, GN4925, Table 7, read-out: MIC): 6.3 µg/mL (≈ 12.2 µM)
